This is an account of results in patent US5011828A, “Immunostimulating guanine derivatives, compositions and methods” (priority 1988, dated 1991).

Test [1] deals with murine lymphocytes (sheep red blood cells as antigen). In words: Antigen-specific adjuvanticity: direct anti-SRBC plaque forming cells, murine system. It counts as cell-based, mouse. The settings on record: for Average 1 Log Plaque Values: Table 9, murine, * = single study. The text has this: ^1 Adjuvanticities against sheep red blood cells [SRBC] measured in
direct plaqueforming cells per culture of lymphocytes from the mouse
strains shown. Details of the procedure are provided in the Materials and
Methods Section. Standard errors from the enumerated mean values are show
A large number of comparisons of adjuvanticity using human and murine lymphocytes as the source of leukocytes have been carried out using compounds of the present invention, as well as with new compounds excluded from the present invention. […] Interstudy comparisons are however useful for showing trends and large differences. Tables 5, 6 and 7, hereinafter, provide exemplary data from such studies in which only the activity at the peak concentration is shown for each compound and the results for the controls are omitted.
Lymphocyte cultures. The serum-containing culture medium water prepared to contain the following per 100 milliliters: 91.9 milliliters RPMI 1640 (Flow Laboratories, Inc., Rockville, Md.), 0.1 milliliters of 100×glutamine, 1.0 milliliter of 100×sodium pyruvate, 1 0 milliliter of 50×nonessential amino acids, 1.0 milliliter of water containing 10^4 units of penicillin G and 10^4 micrograms of streptomycin, and 5.0 milliliters of a supportive lot of fetal calf serum (FCS). These ingredients were admixed to apparent homogeneity. Spleen cell suspensions and populations enriched for splenic B cells were prepared as described in Goodman et al., J. Immunol., 121:1905 (1978).
For evaluation of the primary humoral immune response to sheep erythrocytes (SRBC), 5×10^6 to 10^7 murine spleen cells were cultured in 1.0 milliliter of 5% FCS-containing medium for 4 or 5 days in the presence and absence of immunogen. Cells were incubated in culture trays (Costar, Cambridge, Mass.) at 37° C. in a humidified atmosphere of 10% CO2 in air using tissue culture boxes (CBS Scientific, Del Mar, Calif.) that were rocked at a frequency of 7 cycles per minute. Pooled SRBC are available from the Colorado Serum Co., Denver Colo.
(§1) Assay of plaque forming cells (PFC). PFC secreting antibodies against SRBC were evaluated after 4 or 5 days of culture using a modification of the hemolytic plaque assay of Jerne and Nordin, Science, 140:405 (1963). The cells were brought up in complete medium before plaquing; they were plaqued in standard low Mr agarose (Bio-Rad Laboratories, Richmond Calif.), and were incubated in SRBC-absorbed guinea pig complement for one hour after a 1.5 hour incubation without complement.

Another test relates to murine spleen cells. The experiment in a line: Mitogenicity: [3H]TdR uptake, murine system. The following applies: Table 2. It counts as cell-based, mouse.
Test [2] relates to human peripheral blood lymphocytes (sheep red blood cells as antigen). The experiment in a line: Antigen-specific adjuvanticity: direct anti-SRBC plaque forming cells, human system. It counts as cell-based. How it is done:
^1 Studies were carried in a manner similar to those of Table 1,
except that a human lymphocyte preparation was used.
The results shown in Table 7, below, were obtained similarly to those discussed above, but using human lymphocytes. Some of those studies utilized lymphocytes from more than one individual, and are therefore reported with multiple entries.
Human peripheral blood lymphocytes (PBL) were prepared from normal heparinized venous blood by Ficoll-diatrizoate density gradient centrifugation. PBL were depleted of suppressor T cells bearing the histamine type 2 receptor by adhering them to the surfaces of histamine-rabbit serum albumin-coated plastic petri dishes (Cell-ect No. 2 kit; Seragen, Boston, Mass.) and by recovering the nonadherent cells by panning as described by Wysocki and Sato, Proc. Natl. Acad. Sci. USA, 75:2844 (1978) and modified by Cavagnaro and Osband, Biotechniques, January/February:30 (1983).
The tissue culture medium employed in these studies for human lymphocytes was prepared as follows: One hundred milliliters (ml) contained 87.9 ml RPMI 1640 (Flow Laboratories, Rockville, Md.), 0.1 ml 100×glutamine,1.0 ml of 1.0 M HEPES buffer (Microbilogical Associates, Betheseda, Md.), 1.0 ml of water containing 10^4 U of penicillin G and 10^4 micrograms of streptomycin, and 10 ml of fresh autologous heat-inactivatedplasma. For evaluation of the primary humoral immune response to SRBC, lymphoid cells prepared as above were cultured at a density of 2×10^6 /ml in a volume of 1.0 ml containing 5×10^6 SRBC as antigen (Colorado Serum Co., Denver, Colo.) together with IL-2 (a partially purified preparation of human IL-2 that was free of interferon-gamma activity was obtained from Electro-Nucleonics, Inc., Silver Spring, Md.) and the guanine nucleoside derivative.
as §1

The mark [3] stands for this setting: Table 6, murine system, at peak concentration.
[4] abbreviates: Table 5, murine system, at peak concentration.
Where [5] appears, read: Table 7, later studies, single preparation.

Molecules are shown by their SMILES.

Excerpt for murine spleen cells: ^1 Mitogenicity measured by the uptake of [^3 H]TdR
(tritiumlabeled thymidine deoxyribonucleoside) as determined by measuring
counts per minute (cpm) per cell culture using the conditions discussed i
the Materials and Methods Section.

In the case of `C=CCn1c(=S)n([C@@H]2O[C@H](COC(=O)c3ccccc3)[C@H]3OC(C)(C)O[C@H]32)c2nc(NC(=O)c3ccccc3)[nH]c(=O)c21` [compound 23350, 7-(2-Propenyl)-2-N,5'-O-dibenzoyl-2',3'-O-isopropylidene-8-thioxoguanosine hemihydrate], the “Peak Direct anti-SRBC PFC/Culture” value in test [1] (Table 6, study c) is reported as 45 ± 8 PFC/Culture. Besides, the “adjuvanticity, in words” value in test [1] (murine system) was “substantially inactive at the concentrations utilized”.

With `CC=CCSc1nc2c(=O)[nH]c(N)nc2n1[C@@H]1O[C@H](CO)[C@@H](O)[C@H]1O` [compound 22435, 8-(2-Butenylmercapto)guanosine], the “[3H] TdR Uptake” value in the test on murine spleen cells (3 × 10^-4 M) is on record as 8800 ± 200 cpm/culture; with murine spleen cells (10^-3 M), 11,200 ± 202 cpm/culture; in the test on murine spleen cells (10^-4 M), 4500 ± 120 cpm/culture. The “Direct Anti-SRBC PFC/Culture” value in test [1] (Table 1, C57BL/6J, 3 × 10^-4 M) was 9130 ± 1110 PFC/Culture; in test [1] (Table 1, C57BL/6J, 10^-3 M), 12,080 ± 470 PFC/Culture; in test [1] (Table 1, CBA/CaJ, 3 × 10^-4 M), 582 ± 52 PFC/Culture; in test [1] (Table 1, CBA/CaJ, 10^-3 M) it was 607 ± 57 PFC/Culture; in test [1] (Table 1, CBA/CaJ, 10^-4 M), 247 ± 38 PFC/Culture. In test [1] (murine system), the “adjuvanticity, in words” value was “greater than that of the longer 8-cinnamyl derivative (22359), but less than that of the 8-mercapto compound (8MGuo)”.

As for `C=CCn1c(=S)n([C@@H]2O[C@H](CO)[C@H]3OC(C)(C)O[C@H]32)c2nc(N)[nH]c(=O)c21` [compound 23083, 7-(2-Propenyl)-8-thioxo-2',3'-O-isopropylidineguanosine hemihydrate], the “Peak Direct anti-SRBC PFC/Culture” value in test [1] (setting [3]) was determined as 2150 ± 250 PFC/Culture. Moreover, the “adjuvanticity, in words” value in test [1] (murine system) was “activity substantially identical to that of 7a8oGuo, albeit at about one-half log higher concentration”.

With `C=CCn1c(=S)n(C2OC(COC(=O)c3ccccc3)C3OC(C)(C)OC32)c2nc(N)nc(OC(=O)c3ccccc3)c21` (centres unmarked) [compound 23314, 7-(2-Propenyl)-6,5'-dibenzoyl-2',3'-O-isopropylidene-8-thioxoguanosine], the “Peak Concentration” value in test [1] (Table 6, murine system) is 10^-5 moles per liter. Further, in test [1] (Table 6, study b), the “Peak Direct anti-SRBC PFC/Culture” value was 243 ± 19 PFC/Culture.

In the case of `Nc1nc2c(nc(Br)n2[C@@H]2O[C@H](CO)[C@@H](O)[C@H]2O)c(=O)[nH]1` [8BrGuo, 8-bromoguanosine, reference compound], the “Peak Direct anti-SRBC PFC/Culture” value in test [1] (setting [4]) came to 2450 ± 325 PFC/Culture; in test [1] (Table 6, first study (note 4)), 1167 ± 68 PFC/Culture; in test [1] (Table 6, second study (note 4)), 633 ± 96 PFC/Culture.

`C=CCn1c(=S)n([C@@H]2O[C@H](COC(C)=O)[C@H]3OC(C)(C)O[C@H]32)c2nc(N)[nH]c(=O)c21` [compound 23287, 5'-Acetyl-7-(2-propenyl)-2',3'-O-isopropylidene-8-thioxoguanosine]: the “Peak Direct anti-SRBC PFC/Culture” value in test [1] (Table 6, first study (note 4)) was 1650 ± 63 PFC/Culture; in test [1] (Table 6, second study (note 4)), 1675 ± 298 PFC/Culture. Moreover, the “adjuvanticity, in words” value in test [1] (murine system) is “about twice that exhibited by 8-bromoguanosine (8BrGuo)”.

On to `C=CCn1c(=[Se])n([C@@H]2O[C@H](CO)[C@@H](O)[C@H]2O)c2nc(N)[nH]c(=O)c21` [compound 23369, 7-(2-Propenyl)-8-selenoxoguanosine], for which the “Peak Direct anti-SRBC PFC/Culture” value in test [1] (setting [4]) is recorded as 2425 ± 229 PFC/Culture; in test [2] (setting [5]) it was 2204 ± 370 PFC/Culture.

`C=CCn1c(=S)n([C@@H]2O[C@H](COC(C)=O)[C@@H](OC(C)=O)[C@H]2OC(C)=O)c2nc(N)[nH]c(=O)c21` [compound 22360, 7-(2-Propenyl)-8-thioxo-2',3',5'-triacetylguanosine]: the “Peak Direct anti-SRBC PFC/Culture” value in test [1] (setting [3]) was 743 ± 48 PFC/Culture; in test [2] (Table 7, second group, person a) it was 925 PFC/Culture; in test [2] (Table 7, second group, person b), 6008 PFC/Culture; in test [2] (Table 7, second group, person c), 5050 PFC/Culture. Further, the “Direct Anti-SRBC PFC/Culture” value in test [1] (Table 8, 1 × 10^-5 M) is reported as 1176 PFC/Culture. Besides, the “Average 1 Log Plaque Values” in test [1] was 53,695 ± 28,444 per micromole; in test [2] (Table 9, human, * = single study) it was 38,508 ± 26,802 per micromole.

On to `C=CCSc1nc2c(=O)[nH]c(N)nc2n1[C@@H]1O[C@H](CO)[C@@H](O)[C@H]1O` [compound 22300, 8-(2-propenylmercapto)guanosine], for which the entries for the “[3H] TdR Uptake” value in the test on murine spleen cells (10^-3 M) and in the test on murine spleen cells (10^-4 M) were 16,400 ± 1130 cpm/culture and 2700 ± 130 cpm/culture, respectively. The “Direct Anti-SRBC PFC/Culture” value is recorded as 870 ± 70 PFC/Culture in test [1] (Table 1, CBA/CaJ, 3 × 10^-4 M); 490 ± 133 PFC/Culture in test [1] (Table 1, CBA/CaJ, 10^-3 M); 420 ± 105 PFC/Culture in test [1] (Table 1, CBA/CaJ, 10^-4 M). The “adjuvanticity, in words” value in test [1] (murine system) is “about equal adjuvanticity to that of 8MGuo”.

With `CCCCCCn1c(=O)n([C@@H]2O[C@H](CO)[C@@H](O)[C@H]2O)c2nc(N)[nH]c(=O)c21` [compound 23924, 7-Hexyl-8-oxoguanosine], the “Direct Anti-SRBC PFC/Culture” value in test [1] (Table 8, 1 × 10^-5 M) is listed as 243 PFC/Culture.

On to `CC=CCn1c(=O)n([C@@H]2O[C@H](CO)[C@@H](O)[C@H]2O)c2nc(N)[nH]c(=O)c21` [compound 23679, 7-(2-Butenyl)-8-oxoguanosine], for which the “Direct Anti-SRBC PFC/Culture” value in test [1] (Table 8, 1 × 10^-5 M) was 612 PFC/Culture. In test [1], the “Average 1 Log Plaque Values” is 52,332 per micromole. Moreover, in test [2] (setting [5]), the “Peak Direct anti-SRBC PFC/Culture” value is recorded as 3129 ± 252 PFC/Culture.

Take `CCCCCCCCCCn1c(=O)n([C@@H]2O[C@H](CO)[C@@H](O)[C@H]2O)c2nc(N)[nH]c(=O)c21` [compound 23894, 7-Decyl-8-oxoguanosine]: in test [1] (setting [4]), the “Peak Direct anti-SRBC PFC/Culture” value is listed as 90 ± 15 PFC/Culture.

Take `C=CCn1c(=S)n(C2OC(COC(=O)c3ccccc3)C3OC(C)(C)OC32)c2nc(N)[nH]c(=O)c21.O` (centres unmarked) [compound 23351, 7-(2-Propenyl)-5'-benzoyl-2',3'-O-isopropylideneguanosine-8-thioxoguanosinequarterhydrate]: in test [1] (Table 6, murine system), the “Peak Concentration” value was 10^-4 moles per liter. In addition, the “Peak Direct anti-SRBC PFC/Culture” value in test [1] (Table 6, study a) is 1431 ± 134 PFC/Culture. The “adjuvanticity, in words” value in test [1] (murine system) is “A similar result was obtained”.

For `Nc1nc2c(c(=O)[nH]1)n(CC=Cc1ccccc1)c(=O)n2[C@@H]1O[C@H](CO)[C@@H](O)[C@H]1O` [compound 22827, 7-[(3-Phenyl)-2-propenyl]-8-oxoguanosine], the “Peak Direct anti-SRBC PFC/Culture” value is 1357 ± 226 PFC/Culture in test [1] (setting [4]) and 2577 ± 300 PFC/Culture in test [2] (setting [5]). Also, the “adjuvanticity higher / more active than comparison compound of U.S. Pat. No. 4,643,992” value in test [1] (murine system (Table 5), vs 7m8oGuo or compounds of that patent) is on record as “more than 100%”.

For `Nc1nc2c(c(=O)[nH]1)n(Cc1ccccc1)c(=O)n2[C@@H]1O[C@H](CO)[C@@H](O)[C@H]1O` [compound 24234, 7-Benzyl-8-oxoguanosine], the “Peak Direct anti-SRBC PFC/Culture” value in test [1] (setting [4]) was 2004 PFC/Culture. In test [1], the “Average 1 Log Plaque Values” is 110,777 ± 42,823 per micromole.

On to `CCCn1c(=O)n([C@@H]2O[C@H](CO)[C@@H](O)[C@H]2O)c2nc(N)[nH]c(=O)c21` [compound 24069, 7-Propyl-8-oxoguanosine], for which the “Direct Anti-SRBC PFC/Culture” value in test [1] (Table 8, 1 × 10^-5 M) was 1306 PFC/Culture.
